Reference: article PMC8535469, “Insight into the Binding and Hydrolytic Preferences of hNudt16 Based on Nucleotide Diphosphate Substrates” (International Journal of Molecular Sciences, 2021)
Where two headings read alike, the source gives them in different places.

Columns and labels:
[1] = target: T1, hNudt16E76Q (Homo sapiens, UniProt Q96DE0, E76Q); assay: Thermal stability of hNudt16E76Q with ligands, dye-free nanoDSF; assay type: binding; settings: for Tm, nanoDSF (Dye-Free) / ∆Tm, nanoDSF (Dye-Free): 5 µM hNudt16E76Q, 20 mM MgCl2, 0.5 mM ligand; for ∆Tm, nanoDSF (Dye-Free): relative to apo
T1 construct: 4xHis (four added histidines); made in house; host or cells: E. coli Rosetta 2 (DE3), pET16b
T1 sequence (Q96DE0 whole entry E76Q): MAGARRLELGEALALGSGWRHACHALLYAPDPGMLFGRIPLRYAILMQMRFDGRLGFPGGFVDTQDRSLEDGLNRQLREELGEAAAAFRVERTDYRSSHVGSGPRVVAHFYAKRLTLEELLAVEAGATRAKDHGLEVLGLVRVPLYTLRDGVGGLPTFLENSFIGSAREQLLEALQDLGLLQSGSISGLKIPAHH
Method: (§1) Protein thermal stability in the presence of various ligands was measured using two DSF methods: assays with SYPRO orange dye and dye-free assays. DSF assays with SYPRO orange dye were performed at specific ligand concentrations for each protein–ligand pair. This measurement was performed as described in Section 4.6.1, with a constant MgCl2 concentration of 20 mM and a concentration of the tested ligand maintained at 0.5 mM. DSF dye-free measurements were performed using a Prometheus NT.48 nanoDSF device (NanoTemper Technologies, München, Germany). The composition of the samples was identical to that in the DSF with SYPRO orange dye measurements, without the addition of any dye. […] The measurements were performed at a single ligand concentration for all ligands. After 10 min of pre-incubation, the samples were loaded into standard capillaries (NanoTemper Technologies, München, Germany). […] We fitted the melting temperatures (Tm) globally for at least three independent experiments (but separately for different DSF methods).

[2] = target: T1, hNudt16E76Q; assay: Thermal stability of hNudt16E76Q with ligands, DSF with SYPRO Orange; assay type: binding; settings: 5 µM hNudt16E76Q, 20 mM MgCl2, 0.5 mM ligand, 4× SYPRO Orange; for ∆Tm, DSF (with SYPRO Orange): relative to apo
Method: The protein thermal stability of wild-type hNudt16 and all tested mutants in the presence of increasing Mg^2+ ion concentration was measured using DSF with SYPRO orange dye on CFX RT-PCR (Bio-Rad, Hercules, CA, USA). This method is based on the change in fluorescence of the SYPRO orange dye in an aqueous buffer, which is strongly quenched, while its binding to the exposed hydrophobic regions of thermally unfolded protein results in an increased fluorescence. The optimal concentrations of protein, SYPRO orange dye, and buffer composition, in particular ion content, were determined. The samples were prepared and measured in clear 96-well multiplate PCR plates for RT-PCR (Bio-Rad, Hercules, CA, USA). […] The individual components of the solution were added in equal volumes to each well, with a final sample volume of 25 μL/well. The samples were gently mixed, and the 96-well plate was covered with optically clear PCR sealing tape (Bio-Rad, Hercules, CA, USA) to prevent evaporation. […] The data processing procedure was performed using Bio-Rad CFX Manager (version 1.6.541.1028), and melting point temperatures were calculated as the minimum of the first derivative plot.
as §1

[3] = target: T2, wild-type hNudt16 (Homo sapiens, UniProt Q96DE0); assay: Thermal stability of wild-type hNudt16 with ligands, nanoDSF; assay type: binding; settings: 20 mM MgCl2, same conditions as E76Q
T2 construct: 4xHis (four added histidines); made in house
T2 sequence (Q96DE0 whole entry): as the sequence (Q96DE0 whole entry E76Q) above, with Q76E counted along it
Method: This allow us to conclude that there is no negative effect of the mutation on protein stabilization by studied compounds.
Protein thermal stability in the presence of various ligands was measured using two DSF methods: assays with SYPRO orange dye and dye-free assays. DSF assays with SYPRO orange dye were performed at specific ligand concentrations for each protein–ligand pair. This measurement was performed as described in Section 4.6.1, with a constant MgCl2 concentration of 20 mM and a concentration of the tested ligand maintained at 0.5 mM. DSF dye-free measurements were performed using a Prometheus NT.48 nanoDSF device (NanoTemper Technologies, München, Germany). The composition of the samples was identical to that in the DSF with SYPRO orange dye measurements, without the addition of any dye. The conditions during measurements were as follows: 5 µM protein, 20 mM MgCl2, 10 mM HEPES pH 7.9, 150 mM NaCl, 5% glycerol, 1 mM TCEP, and 0.5 mM ligand. The measurements were performed at a single ligand concentration for all ligands. After 10 min of pre-incubation, the samples were loaded into standard capillaries (NanoTemper Technologies, München, Germany). During the measurement, the samples were heated in a temperature range of 20–95 °C at a rate of 1 °C/min, and the measurements were performed with an excitation power of 30%. All of the collected data measured with using the above two DSF methods were analyzed according to the two-state transition numerical model described previously, using the Marquardt algorithm implemented in the Origin 2019 package (OriginLab, Northampton, MA, USA). We fitted the melting temperatures (Tm) globally for at least three independent experiments (but separately for different DSF methods).

[4] = target: T1, hNudt16E76Q; assay: Microscale thermophoresis (MST) binding, two independent binding sites model; settings: for ΔGdiss2 (for Kd2): calculated as −RTlnKd from MST Kd2; for ΔGdiss1 (for Kd1): calculated as −RTlnKd from MST Kd1
Method: Binding constants for protein–ligand pairs were established using the MST method. The hNudt16 E76Q was labeled with RED-tris-NTA 2nd Generation dye (Monolith HIS-tag labeling Kit, NanoTemper Technologies, München, Germany) according to the manufacturer’s instructions. Measurements were carried out in a wide range of ligand concentrations, selected after preliminary tests for each of the ligands. The results obtained were used to determine of binding parameters for a given ligand. Each MST measurement consisted of a series of 16 serial 1:2 dilutions of the ligand, and was performed at a constant dye-labeled protein concentration of 50 nM. After 10 min of pre-incubation, dye-labeled protein–ligand samples were manually loaded into Monolith™ NT.115 Premium Capillaries (NanoTemper Technologies, München, Germany) and analyzed using the Monolith NT.115 (NanoTemper Technologies). […] Analysis was performed using Origin package (OriginLab, Northampton, MA, USA) and dissociation constants were fitted globally for a series of at least six MST pseudo-titration experiments for each ligand. Up to 10 replicates were performed for some ligands.
For the dissociation constants obtained, we also calculated the free energy associated with the dissociation of the complex ΔGdiss according to the equation: ΔGdiss=−RTlnKd.

[5] = target: T3, hNudt16 (Homo sapiens, UniProt Q96DE0); settings: cited from earlier work
T3 sequence (Q96DE0 whole entry): as the sequence (Q96DE0 whole entry E76Q) above, with Q76E counted along it

[6] = target: T3, hNudt16; assay: Enzymatic hydrolysis catalyzed by hNudt16, products quantified by HPLC; assay type: biochemical; set-up: 4xHis (four added histidines); made in house; settings: 20 µM substrate, 37 °C; for Hydrolysis Products / Hydrolysis Rate, v/[E]0 (hydrolyzed substrate per minute per [enzyme] µM) / Hydrolysis Rate, v/µg (hydrolyzed substrate per minute per enzyme µg): pH 7.9, 6 mM MgCl2, nd = hydrolysis products not detected
Method: Enzymatic hydrolysis catalyzed by hNudt16 was performed at 37 °C in 40 mM Tris buffer (pH 7.9) containing 100 mM NaCl, 6 mM MgCl2, and 2 mM DTT. The concentration of the investigated dinucleotides and mononucleotides was 20 µM in the reaction mixture.
(§2) The hydrolytic susceptibility of the compounds was studied using HPLC. Before each experiment, 1 mL of buffer solution containing the analyte was incubated at 37 °C for 10 min. The hydrolysis process was initiated by the addition of hNudt16. To analyze the reaction progress, 200-µL aliquots of the reaction mixture were withdrawn and incubated at 96 °C for 5 min to stop the reaction through heat inactivation of the enzyme. The samples were then subjected to an HPLC system (Agilent 1200 series, Agilent Technologies, California, USA) with a reverse-phase Supelcosil LC-18-T column and UV/VIS detector. The substrates and hydrolysis products were eluted at 20 °C with a linear gradient of methanol in 0.1 M KH2PO4 (from 0% to 40%) over 15 min at a flow rate of 1.0 mL/min. Changes in the absorbance at 260 nm were continuously monitored during the analysis. Hydrolysis products were identified by comparing their retention times with those of the reference samples. The extent of decapping, determined as the percentage of the hydrolyzed substrate, was calculated using the area under the chromatographic peak of the respective compounds.

[7] = target: T1, hNudt16E76Q; assay: Hydrolytic properties of E76Q mutant tested by HPLC; assay type: biochemical
Method: as §2

[8] = target: T4, hNudt16 EE-QQ (Homo sapiens, UniProt Q96DE0, E79Q/E80Q); assay: Hydrolytic properties of EE-QQ mutant tested by HPLC; assay type: biochemical
T4 construct: 4xHis (four added histidines); made in house; host or cells: E. coli Rosetta 2 (DE3), pET16b
T4 sequence (Q96DE0 whole entry E79Q/E80Q): as the sequence (Q96DE0 whole entry E76Q) above, with Q76E, E79Q, E80Q counted along it
Method: as §2

[9] = target: T5, hNudt16 EE-KK (Homo sapiens, UniProt Q96DE0, E79K/E80K); assay: Hydrolytic properties of EE-KK mutant tested by HPLC; assay type: biochemical
T5 construct: 4xHis (four added histidines); made in house; host or cells: E. coli Rosetta 2 (DE3), pET16b
T5 sequence (Q96DE0 whole entry E79K/E80K): as the sequence (Q96DE0 whole entry E76Q) above, with Q76E, E79K, E80K counted along it
Method: as §2

[10] = second, weaker binding site, read-out: Kd2
[11] = stronger binding site, 50 nM dye-labeled protein, read-out: Kd1

Tm, nanoDSF (Dye-Free) [1] [°C] | ∆Tm, nanoDSF (Dye-Free) [1] [°C] | Tm, DSF (with SYPRO Orange) [2] [°C] | ∆Tm, DSF (with SYPRO Orange) [2] [°C] | ΔGdiss2 (for Kd2) [4] [kcal/mol] | ΔGdiss1 (for Kd1) [4] [kcal/mol] | Kd [4, 10] [nM] | Kd [4, 11] [nM] | Hydrolysis Products [6] | Hydrolysis Rate, v/[E]0 (hydrolyzed substrate per minute per [enzyme] µM) [6] | Hydrolysis Rate, v/µg (hydrolyzed substrate per minute per enzyme µg) [6] [µM/min/µg] | ΔTm relative to the apo form, both DSF and nanoDSF ([1]; 0.5 mM ligand, stated for both types of measurements) | Compound | Tm, wild-type hNudt16, nanoDSF [3] [°C] | ΔTm, wild-type hNudt16, nanoDSF [3] [°C] | Km [5] [µM] | Susceptibility to hydrolysis by hNudt16 (in words) ([6]; HPLC) | Hydrolytic activity of E76Q mutant [7] | Hydrolytic activity of EE-QQ mutant [8] | Hydrolytic activity of EE-KK mutant [9]
80.2 ± 0.1 | 15.2 ± 0.1 | 78.2 ± 0.1 | 14.4 ± 0.1 | 6.154 | 9.063 | 30200 ± 2500 | 220 ± 87 | m^7GMP + GMP | 722.6 ± 68.6 µM/min/[E]0 | 30.11 ± 2.81 |  | C[n+]1cn([C@@H]2O[C@H](COP(=O)([O-])OP(=O)(O)OC[C@H]3O[C@@H](n4cnc5c(=O)[nH]c(N)nc54)[C@H](O)[C@@H]3O)[C@@H](O)[C@H]2O)c2nc(N)[nH]c(=O)c21 [m^7GppG] |  |  |  |  | none of the mutants exhibited hydrolytic activity |  | 
69.1 ± 0.1 | 4.0 ± 0.1 | 68.0 ± 0.1 | 4.3 ± 0.1 |  |  |  |  |  |  |  |  | Nc1nc2c(ncn2[C@@H]2O[C@H](COP(=O)(O)O)[C@@H](O)[C@H]2O)c(=O)[nH]1 [GMP, Guanosine monophosphate] | 70.8 ± 0.1 | 3.5 ± 0.1 |  |  |  |  | 
83.1 ± 0.1 | 18.0 ± 0.1 | 81.2 ± 0.1 | 17.5 ± 0.1 | 7.89 | 9.708 | 1600 ± 400 | 73 ± 23 | GMP | 5454.5 ± 436.3 µM/min/[E]0 | 227.27 ± 18.25 | 17.5–18.0 °C | Nc1nc2c(ncn2[C@@H]2O[C@H](COP(=O)(O)OP(=O)(O)OC[C@H]3O[C@@H](n4cnc5c(=O)[nH]c(N)nc54)[C@H](O)[C@@H]3O)[C@@H](O)[C@H]2O)c(=O)[nH]1 [GppG] |  |  |  |  | none of the mutants exhibited hydrolytic activity | none of the mutants exhibited hydrolytic activity | none of the mutants exhibited hydrolytic activity

Compound | Tm, nanoDSF (Dye-Free) [1] [°C] | ∆Tm, nanoDSF (Dye-Free) [1] [°C] | Tm, DSF (with SYPRO Orange) [2] [°C] | ∆Tm, DSF (with SYPRO Orange) [2] [°C] | ΔGdiss2 (for Kd2) [4] [kcal/mol] | ΔGdiss1 (for Kd1) [4] [kcal/mol] | Kd [4, 10] [nM] | Kd [4, 11] [nM] | Hydrolysis Products [6] | Hydrolysis Rate, v/[E]0 (hydrolyzed substrate per minute per [enzyme] µM) [6] | Hydrolysis Rate, v/µg (hydrolyzed substrate per minute per enzyme µg) [6] [µM/min/µg] | ΔTm relative to the apo form, both DSF and nanoDSF ([1]; 0.5 mM ligand, stated for both types of measurements) | Tm, wild-type hNudt16, nanoDSF [3] [°C] | ΔTm, wild-type hNudt16, nanoDSF [3] [°C] | Km [5] [µM] | Susceptibility to hydrolysis by hNudt16 (in words) ([6]; HPLC) | Hydrolytic activity of E76Q mutant [7] | Hydrolytic activity of EE-QQ mutant [8] | Hydrolytic activity of EE-KK mutant [9]
Adenosine diphosphate ribose [ADPr] | 66.0 ± 0.1 | 0.9 ± 0.1 | 63.6 ± 0.1 | −0.1 ± 0.1 | ≤2.32 |  |  |  |  |  |  |  | 68.1 ± 0.1 | 0.9 ± 0.1 | ~1000 | resistant to hydrolytic cleavage |  |  | 
